Measured values as given in patent US8236778B2, “Synergistic 5′-methylthioadenosine combinations” (Proyecto de Biomedicina Cima, S.L., priority 2008, dated 2012).

Experiments:
acute EAE model = experiment: EAE disease severity score in MS animal model (acute EAE model, rMOG35-55 immunization); type: in vivo; settings: female C57/bl6 mice, daily i.p. treatment starting after immunization, followed to day 31; (27.84 mg/kg), GA 0.1 mg/mouse/day; n=5 per group
MS relapses = settings: current GA therapy; cited from earlier work
[1] = tested on: acute Experimental Autoimmune Encephalomyelitis (EAE); settings: model of Multiple Sclerosis; cited from earlier work
[2] = tested on: Chronic-Relapsing EAE (RR-EAE); settings: model of Multiple Sclerosis; cited from earlier work
[3] = wide range of doses; cited from earlier work

Compound: L-glutamic acid polymer with L-alanine, L-lysine and L-tyrosine, acetate (salt) [GA, reference compound]
- course / severity of the disease (EAE) (acute EAE model): course of the disease with intermediate intensity
- efficacy in preventing new relapses in MS (MS relapses): not more than 25%

Compound: CSC[C@H]1O[C@@H](n2cnc3c(N)ncnc32)[C@H](O)[C@@H]1O [MTA, 5′-methylthioadenosine]
- course / severity of the disease (EAE) (acute EAE model): course of the disease with intermediate intensity
- effect on acute EAE [1]: capable of preventing
- effect on Chronic-Relapsing EAE [2]: ameliorates
- side effects [3]: without side effects
